Experiment [1] addresses high affinity nicotinic receptors. Description: Inhibition of L-[3H]nicotine binding to mouse brain membrane preparations. The arrangement: species or system Mice (DBA strain). Particulars: 10 nM L-[3H]nicotine, 2 hr at 4° C., mouse brain membranes, Ki calculated from IC50 by Cheng method. As to the method: Mice (DBA strain) were maintained on a 12 hour light/dark cycle and were allowed free access to water and food supplied by Wayne Lab Blox, Madison, WI. Animals used in the present studies were 60 to 90 days of age and weighed 20 to 25 g. Brain membrane preparations were obtained from pooled brain tissue of both males and females.
Mice were killed by cervical dislocation. Brains were removed and placed on an ice-cold platform. The cerebellum was removed and the remaining tissue was placed in 10 volumes (weight:volume) of ice-cold buffer (Krebs-RingersHEPES:NaCl, 118 mM; KCl, 4.8 mM; CaCl2, 2.5 mM; MgSO4, 1.2 mM; HEPES, 20 mM; pH to 7.5 with NaOH) and homogenized with a glass-Teflon tissue grinder. The resulting homogenate was centrifuged at 18000×g for 20 min. and the resulting pellet was resuspended in 20 volumes of water. […] Protein was determined by the method of Lowry, et al., J. Biol. Chem., Vol. 193, pp. 265-275 (1951), using bovine serum albumin as the standard.
The binding of L-[^3 H]nicotine was measured using a modification of the method of Romano, et al., Science, Vol. 210, pp. 647-650 (1980) as described previously by Marks, et al., Mol. Pharmacol., Vol. 30, pp. 427-436 (1986). The binding of L-[^3 H]nicotine was measured using a 2 hr. incubation at 4° C. […] Nonspecific binding was determined by inclusion of 10 μM nonradioactive nicotine in the incubations. […]

Experiment [2] relates to synaptosomes from the striatal area of rat brain. Description: [3H]-dopamine release from striatal synaptosomes, continuous perfusion. The experiment is classed as cell-based, Sprague-Dawley rats. Particulars: 0.2 ml of a 20 μM solution of ligand, relative to equal concentration of S(-) nicotine, read-out: Dopamine Release (percent release relative to S(-) nicotine). On the procedure:
Dopamine release was measured by preparing synaptosomes from the striatal area of rat brain obtained from Sprague-Dawley rats generally according to the procedures set forth by Nagy, et al., J. Neurochem., Vol. 43, pp. 1114-1123 (1984). Striata from 4 rats were homogenized in 2 ml of 0.32M sucrose buffered with 5 mM HEPES (pH 7.5), using a glass-teflon tissue grinder. The homogenate was diluted to 5 ml with additional homogenization solution and centrifuged at 1000×g for 10 min. This procedure was repeated on the new pellet and the resulting supernatant was centrifuged at 12,000×g for 20 min. […] Using this method, 30 to 90 percent of the dopamine was taken up into the synaptosomes, as determined by scintillation counting following filtration through glass fiber filters soaked with 0.5 percent polyethyleneimine. […] After the addition of a 0.2 ml of a 20 μM solution of ligand, the perfusate was collected into scintillation vials at 1 min. intervals and the dopamine released was quantified by scintillation counting. Peaks of radioactivity released above background were summed and the average basal release during that time was subtracted from the total. Release was expressed as a percentage of release obtained with an equal concentration of S(-) nicotine.

Drawing on patent US5212188A, “Method for treatment of neurodegenerative diseases” (R. J. Reynolds Tabacco Company, priority 1992, dated 1993), this text covers Ki and Emax for one compound.

The term Ki denotes the dissociation constant of the complex between target and ligand, obtained from inhibition or displacement. Regarding `CNCC/C=C/c1cccnc1` [trans-meta-nicotine], the Ki in experiment [1] was 21 ± 5 nM. In experiment [2], the Emax was determined as 70%.
